Values belong to the compound of their own block, whether it stands above or below them.
Assays:
[1] = molecular target: T1, Proto-oncogene tyrosine-protein kinase ROS (Homo sapiens, UniProt P08922)
A549 = assay: cells; conditions: Homo sapiens, A549, 72 h
NCI-H3122 = assay: cells; conditions: Homo sapiens, NCI-H3122, 72 h
Description: Antiproliferative activity against ALK-addicted human NCI-H3122 cells assessed as reduction in cell viability incubated for 72 hrs by MTT assay

HCC78 = assay: cells; conditions: Homo sapiens, HCC78, 72 h
Description: Antiproliferative activity against ROS1-addicted human HCC78 cells assessed as reduction in cell viability incubated for 72 hrs by MTT assay

[2] = molecular target: Tyrosine-protein kinase BTK (Homo sapiens) (UniProt Q06187); assay: Inhibition of BTK (unknown origin) at 1 uM
[3] = molecular target: CDK2/Cyclin A2 (Homo sapiens) (UniProt P24941+P20248); assay: Inhibition of CDK2/cyclinA (unknown origin) at 1 uM; format: protein-complex assay
[4] = molecular target: Tyrosine-protein kinase Fer (Homo sapiens) (UniProt P16591); assay: Inhibition of FER (unknown origin) at 1 uM
[5] = molecular target: Tyrosine-protein kinase Fes/Fps (Homo sapiens) (UniProt P07332); assay: Inhibition of FES (unknown origin) at 1 uM
[6] = molecular target: Insulin-like growth factor 1 receptor (Homo sapiens) (UniProt P08069); assay: Inhibition of IGF1R (unknown origin) at 1 uM
[7] = molecular target: Tyrosine-protein kinase JAK2 (Homo sapiens) (UniProt O60674); assay: Inhibition of JAK2 (unknown origin) at 1 uM
[8] = molecular target: Activated CDC42 kinase 1 (Homo sapiens) (UniProt Q07912); assay: Inhibition of TNK2 (unknown origin) at 1 uM
[9] = molecular target: Epidermal growth factor receptor (Homo sapiens) (UniProt P00533); assay: Inhibition of EGFR (unknown origin) at 1 uM
[10] = molecular target: Vascular endothelial growth factor receptor 2 (Homo sapiens) (UniProt P35968); assay: Inhibition of KDR (unknown origin) at 1 uM
[11] = molecular target: Leukocyte tyrosine kinase receptor (Homo sapiens) (UniProt P29376); assay: Inhibition of LTK (unknown origin) at 1 uM
[12] = molecular target: Mitogen-activated protein kinase 9 (Homo sapiens) (UniProt P45984); assay: Inhibition of MAPK9 (unknown origin) at 1 uM
[13] = molecular target: Hepatocyte growth factor receptor (Homo sapiens) (UniProt P08581); assay: Inhibition of MET (unknown origin) at 1 uM
[14] = molecular target: Serine/threonine-protein kinase Nek2 (Homo sapiens) (UniProt P51955); assay: Inhibition of NEK2 (unknown origin) at 1 uM
[15] = molecular target: Proto-oncogene tyrosine-protein kinase receptor Ret (Homo sapiens) (UniProt P07949); assay: Inhibition of RET (unknown origin) at 1 uM
Proto-oncogene tyrosine-protein kinase receptor Ret (Homo sapiens), sequence (P07949 whole entry): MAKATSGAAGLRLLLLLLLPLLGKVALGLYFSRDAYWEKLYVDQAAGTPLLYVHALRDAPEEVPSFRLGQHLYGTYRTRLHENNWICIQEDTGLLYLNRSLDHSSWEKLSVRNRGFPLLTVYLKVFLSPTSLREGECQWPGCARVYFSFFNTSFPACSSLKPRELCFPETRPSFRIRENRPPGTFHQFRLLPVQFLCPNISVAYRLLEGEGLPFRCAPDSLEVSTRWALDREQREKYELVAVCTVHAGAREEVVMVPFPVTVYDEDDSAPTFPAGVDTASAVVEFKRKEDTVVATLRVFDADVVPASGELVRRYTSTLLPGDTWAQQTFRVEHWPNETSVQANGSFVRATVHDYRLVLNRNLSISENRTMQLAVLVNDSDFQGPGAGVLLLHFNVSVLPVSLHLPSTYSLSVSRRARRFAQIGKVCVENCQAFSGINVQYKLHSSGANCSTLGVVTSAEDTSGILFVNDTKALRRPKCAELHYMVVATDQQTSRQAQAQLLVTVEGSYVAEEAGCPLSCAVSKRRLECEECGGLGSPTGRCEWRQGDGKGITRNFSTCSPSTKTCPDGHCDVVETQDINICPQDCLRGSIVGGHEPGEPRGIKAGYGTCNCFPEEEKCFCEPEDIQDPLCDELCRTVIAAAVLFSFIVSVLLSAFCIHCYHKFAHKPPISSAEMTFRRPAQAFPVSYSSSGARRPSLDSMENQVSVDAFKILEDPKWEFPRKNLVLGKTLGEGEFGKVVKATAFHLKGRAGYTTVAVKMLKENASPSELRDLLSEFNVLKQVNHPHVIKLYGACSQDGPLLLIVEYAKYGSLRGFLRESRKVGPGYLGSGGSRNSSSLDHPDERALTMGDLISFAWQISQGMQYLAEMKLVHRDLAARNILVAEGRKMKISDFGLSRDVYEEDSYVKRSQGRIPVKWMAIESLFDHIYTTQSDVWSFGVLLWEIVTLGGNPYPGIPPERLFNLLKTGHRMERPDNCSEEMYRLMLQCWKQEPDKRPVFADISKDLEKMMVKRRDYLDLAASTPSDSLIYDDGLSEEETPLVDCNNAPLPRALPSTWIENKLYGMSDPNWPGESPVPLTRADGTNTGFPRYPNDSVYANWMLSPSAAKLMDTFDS

[16] = molecular target: ALK tyrosine kinase receptor (Homo sapiens, UniProt Q9UM73, L1196M)
Description: Inhibition of ALK L1196M mutant (unknown origin) at 1 uM

[17] = tested on: ALK tyrosine kinase receptor (Homo sapiens), Q9UM73 [L1196M]; assay: Potency index, ratio of crizotinib IC50 to compound IC50 for ALK L1196M mutant (unknown origin) at 1 uM
ALK tyrosine kinase receptor (Homo sapiens), Q9UM73 [L1196M], sequence (Q9UM73 whole entry L1196M, looked up): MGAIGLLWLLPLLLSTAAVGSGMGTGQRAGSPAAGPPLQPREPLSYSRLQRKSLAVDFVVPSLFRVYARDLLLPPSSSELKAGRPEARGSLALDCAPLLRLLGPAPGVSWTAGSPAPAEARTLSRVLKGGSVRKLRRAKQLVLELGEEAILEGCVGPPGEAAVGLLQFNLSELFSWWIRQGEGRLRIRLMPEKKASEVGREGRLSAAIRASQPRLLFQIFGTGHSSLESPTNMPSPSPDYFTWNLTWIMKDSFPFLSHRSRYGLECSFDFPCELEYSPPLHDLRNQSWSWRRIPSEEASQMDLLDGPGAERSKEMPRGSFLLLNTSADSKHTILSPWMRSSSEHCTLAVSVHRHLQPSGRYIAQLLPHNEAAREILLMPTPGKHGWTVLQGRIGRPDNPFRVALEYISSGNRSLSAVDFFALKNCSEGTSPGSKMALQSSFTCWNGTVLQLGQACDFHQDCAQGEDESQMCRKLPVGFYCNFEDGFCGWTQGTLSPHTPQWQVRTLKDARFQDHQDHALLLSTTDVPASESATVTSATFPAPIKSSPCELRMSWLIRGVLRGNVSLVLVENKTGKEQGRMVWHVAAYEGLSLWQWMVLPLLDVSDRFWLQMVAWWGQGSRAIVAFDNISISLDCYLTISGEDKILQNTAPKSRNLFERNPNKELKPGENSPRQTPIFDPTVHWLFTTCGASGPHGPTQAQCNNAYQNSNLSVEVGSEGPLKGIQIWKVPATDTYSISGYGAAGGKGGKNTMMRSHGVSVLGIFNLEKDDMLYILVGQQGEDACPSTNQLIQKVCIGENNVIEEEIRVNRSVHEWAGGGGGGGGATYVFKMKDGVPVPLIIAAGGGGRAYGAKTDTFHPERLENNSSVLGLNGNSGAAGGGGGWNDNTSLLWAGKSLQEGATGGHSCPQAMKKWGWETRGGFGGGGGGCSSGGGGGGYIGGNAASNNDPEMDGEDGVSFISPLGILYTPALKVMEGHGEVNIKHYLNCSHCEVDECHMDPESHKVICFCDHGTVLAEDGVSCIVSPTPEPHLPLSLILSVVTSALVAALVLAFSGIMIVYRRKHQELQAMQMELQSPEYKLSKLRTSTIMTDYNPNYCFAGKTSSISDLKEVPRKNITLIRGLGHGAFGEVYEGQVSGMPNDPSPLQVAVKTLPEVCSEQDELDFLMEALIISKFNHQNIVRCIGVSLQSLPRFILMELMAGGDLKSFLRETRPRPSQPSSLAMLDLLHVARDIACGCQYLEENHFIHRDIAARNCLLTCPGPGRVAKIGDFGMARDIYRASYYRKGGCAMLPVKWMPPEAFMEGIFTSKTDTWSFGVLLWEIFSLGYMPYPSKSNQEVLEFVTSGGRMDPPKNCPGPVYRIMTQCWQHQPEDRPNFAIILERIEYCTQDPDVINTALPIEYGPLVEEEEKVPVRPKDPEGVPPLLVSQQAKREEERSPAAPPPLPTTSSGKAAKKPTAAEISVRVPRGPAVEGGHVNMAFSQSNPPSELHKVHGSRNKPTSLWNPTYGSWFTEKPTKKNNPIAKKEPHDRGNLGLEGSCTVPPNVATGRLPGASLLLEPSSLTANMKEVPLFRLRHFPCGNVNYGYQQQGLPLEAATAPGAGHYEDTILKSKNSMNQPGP

BaF3 [18] = assay: Potency index, ratio of crizotinib IC50 to compound IC50 for mouse BAF3 cells expressing CD74/ROS1 G2032R mutant incubated for 72 hrs by CCK8 assay; format: functional
[19] = molecular target: T2, ALK tyrosine kinase receptor (Homo sapiens, UniProt Q9UM73)
Target sequence in this assay (Q9UM73 whole entry): as the sequence (Q9UM73 whole entry L1196M, looked up) above, with M1196L counted along it

[20] = molecular target: T2, ALK tyrosine kinase receptor; conditions: at 1 µM
[21] = tested on: ALK tyrosine kinase receptor (Homo sapiens), Q9UM73 [L1196M]; conditions: at 1 µM
Description: Inhibition of ALK L1196M mutant (unknown origin) at 1 uM relative to control

[22] = tested on: ALK tyrosine kinase receptor (Homo sapiens), Q9UM73 [F1174L]; conditions: at 1 µM
[23] = tested on: ALK tyrosine kinase receptor (Homo sapiens), Q9UM73 [C1156Y]; conditions: at 1 µM
[24] = tested on: ALK tyrosine kinase receptor (Homo sapiens), Q9UM73 [R1275Q]; conditions: at 1 µM
ALK tyrosine kinase receptor (Homo sapiens), Q9UM73 [R1275Q], sequence (Q9UM73 whole entry R1275Q): as the sequence (Q9UM73 whole entry L1196M, looked up) above, with M1196L, R1275Q counted along it

BaF3 [25] = assay: cells; conditions: Mus musculus, BaF3, 72 h
Description: Antiproliferative activity against mouse BAF3 cells expressing wild type CD74/ROS1 assessed as reduction in cell viability incubated for 72 hrs by CCK8 assay

BaF3 [26] = assay: cells; conditions: Mus musculus, BaF3, 72 h; remark: listed apart in the source
Description: Antiproliferative activity against mouse BAF3 cells expressing CD74/ROS1 G2032R mutant assessed as reduction in cell viability incubated for 72 hrs by CCK8 assay

BaF3 [27] = assay: cells; conditions: Mus musculus, BaF3, 72 h; remark: listed apart in the source
Description: Antiproliferative activity against mouse BAF3 cells expressing CD74/ROS1 L2026M mutant assessed as reduction in cell viability incubated for 72 hrs by CCK8 assay

[28] = molecular target: T1, Proto-oncogene tyrosine-protein kinase ROS; remark: listed apart in the source

T1 sequence (P08922 whole entry): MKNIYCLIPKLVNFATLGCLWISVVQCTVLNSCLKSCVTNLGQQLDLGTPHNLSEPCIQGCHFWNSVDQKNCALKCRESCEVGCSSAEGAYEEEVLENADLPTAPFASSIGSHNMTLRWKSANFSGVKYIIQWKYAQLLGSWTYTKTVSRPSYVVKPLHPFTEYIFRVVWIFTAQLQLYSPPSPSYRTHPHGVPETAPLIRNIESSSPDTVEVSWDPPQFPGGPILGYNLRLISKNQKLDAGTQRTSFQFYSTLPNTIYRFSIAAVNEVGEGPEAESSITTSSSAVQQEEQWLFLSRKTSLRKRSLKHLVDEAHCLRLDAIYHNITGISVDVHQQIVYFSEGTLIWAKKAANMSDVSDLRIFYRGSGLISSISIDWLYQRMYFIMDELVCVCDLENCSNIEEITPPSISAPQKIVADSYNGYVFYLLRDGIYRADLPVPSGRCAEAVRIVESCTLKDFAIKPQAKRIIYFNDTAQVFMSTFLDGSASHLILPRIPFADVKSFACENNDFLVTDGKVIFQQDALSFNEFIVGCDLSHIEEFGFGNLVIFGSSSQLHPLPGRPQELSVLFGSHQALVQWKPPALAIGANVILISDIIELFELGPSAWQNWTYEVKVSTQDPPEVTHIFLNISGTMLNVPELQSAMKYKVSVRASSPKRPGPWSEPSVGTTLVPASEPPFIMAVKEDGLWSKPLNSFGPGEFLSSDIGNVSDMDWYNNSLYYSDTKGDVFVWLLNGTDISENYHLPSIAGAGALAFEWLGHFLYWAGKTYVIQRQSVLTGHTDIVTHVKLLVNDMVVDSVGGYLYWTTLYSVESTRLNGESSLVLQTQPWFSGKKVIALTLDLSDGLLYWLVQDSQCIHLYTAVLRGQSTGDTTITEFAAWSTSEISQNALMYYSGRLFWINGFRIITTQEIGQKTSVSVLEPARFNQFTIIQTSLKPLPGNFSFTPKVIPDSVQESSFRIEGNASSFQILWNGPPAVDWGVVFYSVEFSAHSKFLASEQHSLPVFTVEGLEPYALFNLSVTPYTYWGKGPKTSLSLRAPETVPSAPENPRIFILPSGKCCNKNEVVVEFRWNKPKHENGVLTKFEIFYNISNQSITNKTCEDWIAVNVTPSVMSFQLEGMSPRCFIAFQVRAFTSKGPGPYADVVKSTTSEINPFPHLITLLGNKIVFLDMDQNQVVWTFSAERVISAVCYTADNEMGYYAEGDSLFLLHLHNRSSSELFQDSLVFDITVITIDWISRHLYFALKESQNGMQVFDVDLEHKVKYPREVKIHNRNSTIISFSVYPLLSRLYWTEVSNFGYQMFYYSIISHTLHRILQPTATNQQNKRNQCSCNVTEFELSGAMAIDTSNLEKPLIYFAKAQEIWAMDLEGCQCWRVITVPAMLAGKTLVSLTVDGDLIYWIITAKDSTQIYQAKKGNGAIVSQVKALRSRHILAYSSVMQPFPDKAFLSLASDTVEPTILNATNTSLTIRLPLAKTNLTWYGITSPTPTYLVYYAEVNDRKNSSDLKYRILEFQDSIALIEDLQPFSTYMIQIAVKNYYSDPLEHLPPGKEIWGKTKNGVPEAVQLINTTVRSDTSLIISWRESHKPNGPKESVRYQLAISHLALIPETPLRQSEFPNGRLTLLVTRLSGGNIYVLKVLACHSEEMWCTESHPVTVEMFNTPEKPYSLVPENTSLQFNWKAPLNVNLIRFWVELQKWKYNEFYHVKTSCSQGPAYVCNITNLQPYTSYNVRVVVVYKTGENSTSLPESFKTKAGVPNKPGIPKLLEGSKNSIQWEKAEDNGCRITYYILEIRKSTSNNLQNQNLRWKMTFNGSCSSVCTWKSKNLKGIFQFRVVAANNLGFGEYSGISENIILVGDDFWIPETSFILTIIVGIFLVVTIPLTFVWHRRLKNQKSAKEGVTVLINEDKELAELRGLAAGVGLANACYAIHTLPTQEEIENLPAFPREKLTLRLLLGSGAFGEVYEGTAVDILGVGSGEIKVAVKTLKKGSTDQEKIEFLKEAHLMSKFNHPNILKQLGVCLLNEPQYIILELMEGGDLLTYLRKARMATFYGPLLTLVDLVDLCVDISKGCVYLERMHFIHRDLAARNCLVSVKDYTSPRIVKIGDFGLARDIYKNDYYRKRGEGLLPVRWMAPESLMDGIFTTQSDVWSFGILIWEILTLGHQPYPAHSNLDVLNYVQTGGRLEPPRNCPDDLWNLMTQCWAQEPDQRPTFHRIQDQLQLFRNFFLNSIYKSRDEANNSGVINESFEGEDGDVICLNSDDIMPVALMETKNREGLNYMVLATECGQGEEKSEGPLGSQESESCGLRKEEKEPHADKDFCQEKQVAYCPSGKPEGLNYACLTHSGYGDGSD

Structure (SMILES): COc1cc(N2CCC(N3CCN(C)CC3)CC2)ccc1Nc1cc(N2CCC[C@H](C(=O)NCc3ccc(OC(F)(F)F)cc3)C2)ccn1
IC50 [1]: 2260 nM | IC50 (A549): 6.6 µM | IC50 (NCI-H3122): 16.6 µM | IC50 (HCC78): 11 µM

Structure (SMILES): Cc1cc(Nc2cc(N3CCC[C@@H](C(=O)NCc4ccc(OC(F)(F)F)cc4)C3)ccn2)ccc1NC1CCN(C)CC1
IC50 [1]: > 10000 nM | IC50 (A549): 6.51 µM | IC50 (NCI-H3122): 10.4 µM | IC50 (HCC78): 13.5 µM

Structure (SMILES): COc1cc(N2CCNCC2)ccc1Nc1cc(N2CCC[C@H](C(=O)NCc3ccc(OC(F)(F)F)cc3)C2)ccn1
inhibition [2]: -5% | inhibition [3]: 1% | inhibition [4]: 6% | inhibition [5]: -1% | inhibition [6]: 3% | inhibition [7]: 11% | inhibition [8]: -3% | inhibition [9]: 11% | inhibition [10]: -3% | inhibition [11]: 91% | inhibition [12]: -10% | inhibition [13]: 6% | inhibition [14]: -7% | inhibition [15]: -3% | IC50 [16]: 41.3 nM | Ratio IC50 [17]: 2 | Ratio IC50 (BaF3 [18]): 6 | IC50 [1]: 530 nM | IC50 [19]: 174 nM | inhibition [20]: 95% | inhibition [21]: 93% | inhibition [22]: 80% | inhibition [23]: 100% | inhibition [24]: 92% | IC50 (A549): 3.64 µM | IC50 (NCI-H3122): 6.45 µM | IC50 (HCC78): 10.7 µM | IC50 (BaF3 [25]): 138 nM | IC50 (BaF3 [26]): 105 nM | IC50 (BaF3 [27]): 234 nM

Structure (SMILES): COc1cc(Nc2cc(N3CCC[C@H](C(=O)NCc4ccc(C)cc4)C3)ccn2)cc(OC)c1OC
IC50 [1]: 12100 nM | IC50 (A549): 12.7 µM | IC50 (NCI-H3122): 27.8 µM | IC50 (HCC78): 24.5 µM

Structure (SMILES): CN1CCC(n2cc(Nc3cc(N4CCC[C@H](C(=O)NCc5ccc(C#N)cc5)C4)ccn3)cn2)CC1
IC50 [28]: Not Active | IC50 (A549): 53.8 µM | IC50 (NCI-H3122): 15.1 µM | IC50 (HCC78): 87.6 µM

Structure (SMILES): COc1cc(N2CCC(N3CCN(C)CC3)CC2)ccc1Nc1cc(N2CCC[C@@H](C(=O)NCc3ccc(OC(F)(F)F)cc3)C2)ccn1
IC50 [1]: > 10000 nM | IC50 (A549): 2.79 µM | IC50 (NCI-H3122): 8.86 µM | IC50 (HCC78): 10.9 µM

Structure (SMILES): COc1cc(N2CCC(N3CCOCC3)CC2)ccc1Nc1cc(N2CCC[C@@H](C(=O)NCc3ccc(OC(F)(F)F)cc3)C2)ccn1
IC50 [1]: > 10000 nM | IC50 (A549): 6.45 µM | IC50 (NCI-H3122): 8.3 µM | IC50 (HCC78): 13.7 µM

Structure (SMILES): Cc1nn(C)cc1Nc1cc(N2CCC[C@H](C(=O)NCc3ccc(OC(F)(F)F)cc3)C2)ccn1
IC50 [1]: 1260 nM | IC50 (A549): 11.3 µM | IC50 (NCI-H3122): 20.2 µM | IC50 (HCC78): 34.6 µM

Structure (SMILES): O=C(NCc1ccc(OC(F)(F)F)cc1)[C@H]1CCCN(c2ccnc(Nc3ncccn3)c2)C1
IC50 [28]: Not Active | IC50 (A549): 17.2 µM | IC50 (NCI-H3122): 44.3 µM | IC50 (HCC78): 36.5 µM

Structure (SMILES): Cc1ccc(CNC(=O)[C@H]2CCCN(c3ccnc(Nc4cn(C)nc4C)c3)C2)cc1
IC50 [28]: Not Active | IC50 (A549): 39.6 µM | IC50 (NCI-H3122): 40.7 µM | IC50 (HCC78): 67.2 µM

Structure (SMILES): Cc1cc(Nc2cc(N3CCC[C@H](C(=O)NCc4ccc(OC(F)(F)F)cc4)C3)ccn2)ccc1NC1CCN(C)CC1
IC50 [1]: > 10000 nM | IC50 (A549): 7.07 µM | IC50 (NCI-H3122): 5.1 µM | IC50 (HCC78): 7.76 µM

Structure (SMILES): COc1cc(N2CCNCC2)ccc1Nc1cc(N2CCC[C@@H](C(=O)NCc3ccc(OC(F)(F)F)cc3)C2)ccn1
IC50 [1]: 1210 nM | IC50 [19]: 560 nM | inhibition [20]: 76% | IC50 (A549): 5.11 µM | IC50 (NCI-H3122): 10.7 µM | IC50 (HCC78): 25.3 µM

Next, values leading:

IC50 [1]: 1080 nM | IC50 (A549): 7.79 µM | IC50 (NCI-H3122): 7.53 µM | IC50 (HCC78): 14.9 µM
Structure (SMILES): COc1cc(N2CCN(C)CC2)ccc1Nc1cc(N2CCC[C@H](C(=O)NCc3ccc(OC(F)(F)F)cc3)C2)ccn1

IC50 [28]: Not Active | IC50 (A549): > 100 µM | IC50 (NCI-H3122): > 100 µM | IC50 (HCC78): > 100 µM
Structure (SMILES): COc1ccc(CNC(=O)[C@H]2CCCN(c3ccnc(Nc4cn(C)nc4C)c3)C2)cc1OC

IC50 [1]: 3390 nM | IC50 (A549): 6.93 µM | IC50 (NCI-H3122): 5.81 µM | IC50 (HCC78): 15.2 µM
Structure (SMILES): COc1cc(N2CCC(N3CCOCC3)CC2)ccc1Nc1cc(N2CCC[C@H](C(=O)NCc3ccc(OC(F)(F)F)cc3)C2)ccn1

IC50 [28]: Not Active | IC50 (A549): > 100 µM | IC50 (NCI-H3122): > 100 µM | IC50 (HCC78): > 100 µM
Structure (SMILES): COc1ccc(CNC(=O)[C@H]2CCCN(c3ccnc(Nc4cnn(C5CCN(C)CC5)c4)c3)C2)cc1OC

IC50 [28]: Not Active | IC50 (A549): > 100 µM | IC50 (NCI-H3122): > 100 µM | IC50 (HCC78): > 100 µM
Structure (SMILES): COc1ccc(CNC(=O)[C@H]2CCCN(c3ccnc(Nc4cnn(C)c4)c3)C2)cc1OC

IC50 [28]: Not Active | IC50 (A549): > 100 µM | IC50 (NCI-H3122): 51.7 µM | IC50 (HCC78): 83.7 µM
Structure (SMILES): COc1ccc(CNC(=O)[C@H]2CCCN(c3ccnc(Nc4cnn(C5CCNCC5)c4)c3)C2)cc1OC

IC50 [1]: 7300 nM | IC50 (A549): 9.74 µM | IC50 (NCI-H3122): 13.9 µM | IC50 (HCC78): 80.7 µM
Structure (SMILES): Cc1nn(C)cc1Nc1cc(N2CCC[C@@H](C(=O)NCc3ccc(OC(F)(F)F)cc3)C2)ccn1

From ChEMBL document CHEMBL4351011, “Design, synthesis and biological evaluations of 2-amino-4-(1-piperidine) pyridine derivatives as novel anti crizotinib-resistant ALK/ROS1 dual inhibitors” (Eur J Med Chem, 2019)
